Measurements from ChEMBL document CHEMBL4725357, “Elucidating the Structural Requirement of Uridylpeptide Antibiotics for Antibacterial Activity” (J Med Chem, 2020).
Values after ≈ are worked out from the molar mass of the structure shown.

Experiments:
[1] = tested on: Pseudomonas aeruginosa; test: Antibacterial activity against Pseudomonas aeruginosa PAO1 incubated for 18 hrs by CLSI based broth microdilution method; format: functional
[2] = tested on: Pseudomonas aeruginosa; test: Antibacterial activity against Pseudomonas aeruginosa serotype B IID1013 incubated for 18 hrs by CLSI based broth microdilution method; format: functional
[3] = tested on: Pseudomonas aeruginosa; test: Antibacterial activity against Pseudomonas aeruginosa serotype F IID1006 incubated for 18 hrs by CLSI based broth microdilution method; format: functional
[4] = tested on: Pseudomonas aeruginosa; test: Antibacterial activity against multidrug-resistant Pseudomonas aeruginosa MDRP62 incubated for 18 hrs by CLSI based broth microdilution method; format: functional
[5] = tested on: Pseudomonas aeruginosa; test: Antibacterial activity against Pseudomonas aeruginosa serotype I IID1010 incubated for 18 hrs by CLSI based broth microdilution method; format: functional
[6] = tested on: HepG2; test: Cytotoxicity against human HepG2 cells after 24 hrs by CCK-8 assay; format: cell-based; details: HepG2, 24 h
[7] = tested on: Pseudomonas aeruginosa; test: Antibacterial activity against Pseudomonas aeruginosa serotype C IID1021 incubated for 18 hrs by CLSI based broth microdilution method; format: functional
[8] = tested on: Pseudomonas aeruginosa; test: Antibacterial activity against Pseudomonas aeruginosa isolate 2931 incubated for 18 hrs by CLSI based broth microdilution method; format: functional
[9] = tested on: Pseudomonas aeruginosa; test: Antibacterial activity against Pseudomonas aeruginosa isolate 9728b incubated for 18 hrs by CLSI based broth microdilution method; format: functional
[10] = tested on: Pseudomonas aeruginosa; test: Antibacterial activity against Pseudomonas aeruginosa isolate 2867 incubated for 18 hrs by CLSI based broth microdilution method; format: functional
[11] = tested on: Pseudomonas aeruginosa; test: Resistance index, ratio of MIC for Pseudomonas aeruginosa PAO1 incubated overnight to MIC for Pseudomonas aeruginosa PAO1 incubated for 18 hrs; format: functional
[12] = tested on: Pseudomonas aeruginosa; test: Antibacterial activity against Pseudomonas aeruginosa serotype G IID1020 incubated for 18 hrs by CLSI based broth microdilution method; format: functional
[13] = tested on: Pseudomonas aeruginosa; test: Antibacterial activity against Pseudomonas aeruginosa serotype E IID1130 incubated for 18 hrs by CLSI based broth microdilution method; format: functional
[14] = tested on: Pseudomonas aeruginosa; test: Antibacterial activity against Pseudomonas aeruginosa serotype J IID1011 incubated for 18 hrs by CLSI based broth microdilution method; format: functional
[15] = tested on: Pseudomonas aeruginosa; test: Antibacterial activity against Pseudomonas aeruginosa serotype H IID1009 incubated for 18 hrs by CLSI based broth microdilution method; format: functional
[16] = Substrate activity at NppA1A2BCD assessed as antibacterial activity against Pseudomonas aeruginosa PAO1 PW4182; format: ADME; details: pseudomonas aeruginosa pao1, 720 h; time 30 day
[17] = Inhibition of Staphylococcus aureus MraY using UDPMurNAc-dansylpentapeptide as substrate incubated for 3 hrs by fluorescence method
[18] = tested on: Pseudomonas aeruginosa; test: Antibacterial activity against Pseudomonas aeruginosa serotype B IID1007 incubated for 18 hrs by CLSI based broth microdilution method; format: functional
[19] = tested on: Pseudomonas aeruginosa; test: Antibacterial activity against Pseudomonas aeruginosa serotype M IID5018 incubated for 18 hrs by CLSI based broth microdilution method; format: functional
[20] = Substrate activity at NppA1A2BCD assessed as antibacterial activity against mureidomycin-resistant Pseudomonas aeruginosa PAO1 harboring NppA1A2BCD mutant measured at day 2 post mureidomycin-challenge; format: ADME
[21] = tested on: Pseudomonas aeruginosa; test: Antibacterial activity against Pseudomonas aeruginosa isolate 1485 incubated for 18 hrs by CLSI based broth microdilution method; format: functional
[22] = Substrate activity at NppA1A2BCD assessed as antibacterial activity against mureidomycin-resistant Pseudomonas aeruginosa PAO1 harboring NppA1A2BCD mutant measured at day 1 post mureidomycin-challenge; format: ADME
[23] = tested on: Pseudomonas aeruginosa; test: Antibacterial activity against Pseudomonas aeruginosa serotype A IID1001 incubated for 18 hrs by CLSI based broth microdilution method; format: functional
[24] = tested on: Pseudomonas aeruginosa; test: Antibacterial activity against Pseudomonas aeruginosa serotype B IID5004 incubated for 18 hrs by CLSI based broth microdilution method; format: functional
[25] = tested on: Pseudomonas aeruginosa; test: Antibacterial activity against Pseudomonas aeruginosa serotype D IID1004 incubated for 18 hrs by CLSI based broth microdilution method; format: functional
[26] = Substrate activity at NppA1A2BCD assessed as antibacterial activity against Pseudomonas aeruginosa PAO1 PW4181; format: ADME; details: pseudomonas aeruginosa pao1, 720 h; time 30 day
[27] = tested on: Pseudomonas aeruginosa; test: Antibacterial activity against Pseudomonas aeruginosa isolate 1483 incubated for 18 hrs by CLSI based broth microdilution method; format: functional
[28] = tested on: Pseudomonas aeruginosa; test: Antibacterial activity against Pseudomonas aeruginosa serotype M IID1015 incubated for 18 hrs by CLSI based broth microdilution method; format: functional
[29] = tested on: Pseudomonas aeruginosa; test: Antibacterial activity against Pseudomonas aeruginosa ATCC 27853 incubated for 18 hrs by CLSI based broth microdilution method; format: functional
[30] = tested on: Pseudomonas aeruginosa; test: Antibacterial activity against Pseudomonas aeruginosa serotype L IID5141 incubated for 18 hrs by CLSI based broth microdilution method; format: functional
[31] = tested on: Pseudomonas aeruginosa; test: Antibacterial activity against Pseudomonas aeruginosa serotype K IID1012 incubated for 18 hrs by CLSI based broth microdilution method; format: functional
[32] = tested on: Pseudomonas aeruginosa; test: Antibacterial activity against Pseudomonas aeruginosa serotype B IID1002 incubated for 18 hrs by CLSI based broth microdilution method; format: functional
[33] = Substrate activity at NppA1A2BCD assessed as antibacterial activity against mureidomycin-resistant Pseudomonas aeruginosa PAO1 harboring NppA1A2BCD mutant measured at day 30 post mureidomycin-challenge; format: ADME
[34] = tested on: Pseudomonas aeruginosa; test: Antibacterial activity against Pseudomonas aeruginosa incubated for 18 hrs by CLSI based broth microdilution method; format: functional

With `CSCC[C@H](NC(=O)N[C@@H](Cc1cccc(O)c1)C(=O)O)C(=O)N[C@H](C(=O)N/C=C1\O[C@@H](n2ccc(=O)[nH]c2=O)[C@H](O)[C@@H]1O)[C@H](C)N(C)C(=O)[C@@H](N)Cc1cccc(O)c1` the MIC [1] was 4 µg/mL (≈ 4.67 µM), the MIC [2] was > 128 µg/mL and the MIC [3] was > 128 µg/mL. For the same compound, the MIC [4] was 16 µg/mL (≈ 18.7 µM), the MIC [5] was 32 µg/mL (≈ 37.3 µM) and the IC50 [6] was > 100000 nM. It also gave an MIC [7] of 8 µg/mL (≈ 9.34 µM), an MIC [8] of 16 µg/mL (≈ 18.7 µM) and an MIC [9] of 32 µg/mL (≈ 37.3 µM). It also gave an MIC [10] of 8 µg/mL (≈ 9.34 µM), a Ratio [11] of 8 and an MIC [12] of 8 µg/mL (≈ 9.34 µM). For the same compound, the MIC [13] was 16 µg/mL (≈ 18.7 µM), the MIC [14] was 16 µg/mL (≈ 18.7 µM) and the MIC [15] was 8 µg/mL (≈ 9.34 µM). For the same compound, the MIC [16] was > 128 µg/mL, the IC50 [17] was 1.3 nM and the MIC [18] was 32 µg/mL (≈ 37.3 µM). For the same compound, the MIC [19] was > 128 µg/mL, the MIC [20] was > 64 µg/mL and the MIC [21] was 4 µg/mL (≈ 4.67 µM). For the same compound, the MIC [22] was > 64 µg/mL, the MIC [23] was 64 µg/mL (≈ 74.7 µM) and the MIC [24] was 8 µg/mL (≈ 9.34 µM). For the same compound, the MIC [25] was 8 µg/mL (≈ 9.34 µM), the MIC [26] was > 128 µg/mL and the MIC [27] was 8 µg/mL (≈ 9.34 µM). For the same compound, the MIC [28] was 16 µg/mL (≈ 18.7 µM), the MIC [29] was 4 µg/mL (≈ 4.67 µM) and the MIC [30] was 4 µg/mL (≈ 4.67 µM). The MIC [31] was 16 µg/mL (≈ 18.7 µM), the MIC [32] was 16 µg/mL (≈ 18.7 µM) and the MIC [33] was > 64 µg/mL.

For `C[C@@H]([C@H](NC(=O)[C@H](CC[S+](C)[O-])NC(=O)N[C@@H](Cc1cccc(O)c1)C(=O)O)C(=O)N/C=C1\O[C@@H](n2ccc(=O)[nH]c2=O)[C@H](O)[C@@H]1O)N(C)C(=O)[C@@H](N)Cc1cccc(O)c1` (stereo not given in full), the MIC [34] was 32 µg/mL (≈ 36.7 µM) and the IC50 [17] was 4.7 nM.
